Results as given in PubChem BioAssay AID256 (DTP/NCI, 2004).
“And” between values parts separate entries of the source, which are not always exact repeats. Identical values can stand only once. Inconclusive results and toxic doses are left out. The calls were made as follows: active = survival T/C of 150% or more; inactive = T/C below 125% in these data.

Test system: CD2F1 mice, L1210 leukemia ip, survival T/C
Assay: NCI In Vivo Anticancer Drug Screen. Data for tumor model L1210 Leukemia (intraperitoneal) in CD2F1 (CDF1) mice
Settings: higher = longer survival
Method in brief: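 Activity against a transplanted murine tumor was judged by comparing the compound group with a vehicle group. The outcome in the treated animals was divided by that in the controls.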

[1] = endpoint: mean survival time, dose: 12.5 mg/kg/injection, schedule: Q04DX003 (ip), vehicle: saline
[2] = endpoint: mean survival time, dose: 25.0 mg/kg/injection, schedule: Q04DX003 (ip), vehicle: saline with Tween-80
[3] = endpoint: mean survival time, dose: 50.0 mg/kg/injection, schedule: Q04DX003 (ip), vehicle: saline with Tween-80
[4] = endpoint: mean survival time, dose: 100.0 mg/kg/injection, schedule: Q04DX003 (ip), vehicle: saline with Tween-80
[5] = endpoint: mean survival time, dose: 200.0 mg/kg/injection, schedule: Q04DX003 (ip), vehicle: saline with Tween-80
[6] = endpoint: mean survival time, dose: 400.0 mg/kg/injection, schedule: Q04DX003 (ip), vehicle: saline with Tween-80
[7] = endpoint: mean survival time, dose: 100.0 mg/kg/injection, schedule: Q01DX009 (ip), vehicle: saline with Tween-80
[8] = endpoint: mean survival time, dose: 200.0 mg/kg/injection, schedule: Q01DX009 (ip), vehicle: saline with Tween-80
[9] = endpoint: mean survival time, dose: 400.0 mg/kg/injection, schedule: Q01DX009 (ip), vehicle: saline with Tween-80

Measured: T/C

c1ccc2n[se]nc2c1
inactive: endpoint: mean survival time, dose: 3.13 mg/kg/injection, schedule: Q01DX009 (ip), vehicle: saline 98 % of control | endpoint: mean survival time, dose: 3.13 mg/kg/injection, schedule: Q04DX003 (ip), vehicle: saline 97 % of control | endpoint: mean survival time, dose: 6.25 mg/kg/injection, schedule: Q01DX009 (ip), vehicle: saline 94 % of control | endpoint: mean survival time, dose: 6.25 mg/kg/injection, schedule: Q04DX003 (ip), vehicle: saline 101 % of control | endpoint: mean survival time, dose: 12.5 mg/kg/injection, schedule: Q01DX009 (ip), vehicle: saline 96 % of control | [1] 103 % of control

CC(C)(C)OC(=O)NC(CCCCNC(=O)C(F)(F)F)C(=O)ON1C(=O)CCC1=O (stereo not given)
inactive: [2] 102 % of control | [3] 102 % of control | [4] 89 % of control and 101 % of control

N/C(=N\N=C(c1ccccc1)c1ccccc1)N[N+](=O)[O-]
inactive: [4] 97 % of control | [5] 100 % of control | [6] 103 % of control

Cn1nc(N)c2ncc(-c3ccc(Cl)cc3)nc21
inactive: endpoint: mean survival time, dose: 100.0 mg/kg/injection, schedule: Q04DX003 (ip), vehicle: alcohol 91 % of control | endpoint: mean survival time, dose: 200.0 mg/kg/injection, schedule: Q04DX003 (ip), vehicle: alcohol 89 % of control | endpoint: mean survival time, dose: 400.0 mg/kg/injection, schedule: Q04DX003 (ip), vehicle: alcohol 91 % of control

COc1cc([N+](=O)[O-])ccc1NC(=O)NCCc1ccccc1
inactive: endpoint: mean survival time, dose: 100.0 mg/kg/injection, schedule: Q01DX001 (ip), vehicle: saline with Tween-80 86 % of control and 97 % of control | [7] 90 % of control and 91 % of control | endpoint: mean survival time, dose: 100.0 mg/kg/injection, schedule: Q04DX002 (ip), vehicle: saline with Tween-80 95 % of control | [4] 89 % of control | endpoint: mean survival time, dose: 200.0 mg/kg/injection, schedule: Q01DX001 (ip), vehicle: saline with Tween-80 86 % of control and 91 % of control | [8] 91 % of control and 103 % of control | endpoint: mean survival time, dose: 200.0 mg/kg/injection, schedule: Q04DX002 (ip), vehicle: saline with Tween-80 95 % of control | [5] 91 % of control | endpoint: mean survival time, dose: 400.0 mg/kg/injection, schedule: Q01DX001 (ip), vehicle: saline with Tween-80 91 % of control | [9] 90 % of control and 91 % of control | endpoint: mean survival time, dose: 400.0 mg/kg/injection, schedule: Q04DX002 (ip), vehicle: saline with Tween-80 90 % of control | [6] 89 % of control

CCCN(CCC)CC(=O)Nc1c(Cl)cccc1Cl
inactive: endpoint: mean survival time, dose: 50.0 mg/kg/injection, schedule: Q01DX009 (ip), vehicle: saline sonified 101 % of control | endpoint: mean survival time, dose: 100.0 mg/kg/injection, schedule: Q01DX009 (ip), vehicle: saline sonified 96 % of control | [4] 105 % of control | [5] 105 % of control

CCCCCCC#CC(=O)OC
inactive: [7] 101 % of control | [4] 96 % of control | [8] 101 % of control | [5] 102 % of control | [6] 97 % of control

CNP1(=O)OC(c2ccccc2)=CCN1CCCl (stereo not given)
inactive: endpoint: median survival time, dose: 31.25 mg/kg/injection, schedule: Q01DX001 (ip), vehicle: distilled water + Tween-80 102 % of control | endpoint: median survival time, dose: 62.5 mg/kg/injection, schedule: Q01DX001 (ip), vehicle: distilled water + Tween-80 106 % of control | endpoint: median survival time, dose: 125.0 mg/kg/injection, schedule: Q01DX001 (ip), vehicle: distilled water + Tween-80 96 % of control | endpoint: median survival time, dose: 250.0 mg/kg/injection, schedule: Q01DX001 (ip), vehicle: distilled water + Tween-80 96 % of control

Nc1nc(N)c2ncn(Cc3ccccc3)c2n1
inactive: [4] 98 % of control | [5] 93 % of control | [6] 100 % of control

CC(C)(C)[Si](C)(C)N1CCCOP1(=O)N(CCCl)CCCl (stereo not given)
inactive: endpoint: mean survival time, dose: 15.6 mg/kg/injection, schedule: Q01DX001 (ip), vehicle: distilled water + Tween-80 98 % of control | endpoint: mean survival time, dose: 31.3 mg/kg/injection, schedule: Q01DX001 (ip), vehicle: distilled water + Tween-80 102 % of control | endpoint: mean survival time, dose: 62.5 mg/kg/injection, schedule: Q01DX001 (ip), vehicle: distilled water + Tween-80 96 % of control | endpoint: mean survival time, dose: 125.0 mg/kg/injection, schedule: Q01DX001 (ip), vehicle: distilled water + Tween-80 108 % of control | endpoint: mean survival time, dose: 250.0 mg/kg/injection, schedule: Q01DX001 (ip), vehicle: distilled water + Tween-80 101 % of control | endpoint: mean survival time, dose: 500.0 mg/kg/injection, schedule: Q01DX001 (ip), vehicle: distilled water + Tween-80 104 % of control

OCC(O)C(O)C(O)C(O)CO (stereo not given)
inactive: [7] 98 % of control | endpoint: mean survival time, dose: 100.0 mg/kg/injection, schedule: Q04DX003 (ip), vehicle: saline 96 % of control | [5] 97 % of control | endpoint: mean survival time, dose: 200.0 mg/kg/injection, schedule: Q04DX003 (ip), vehicle: saline 98 % of control | [9] 98 % of control | endpoint: mean survival time, dose: 400.0 mg/kg/injection, schedule: Q04DX003 (ip), vehicle: saline 96 % of control | endpoint: median survival time, dose: 75.0 mg/kg/injection, schedule: Q01DX009 (ip), vehicle: saline with Tween-80 100 % of control | endpoint: median survival time, dose: 150.0 mg/kg/injection, schedule: Q01DX009 (ip), vehicle: saline with Tween-80 97 % of control | endpoint: median survival time, dose: 600.0 mg/kg/injection, schedule: Q01DX009 (ip), vehicle: saline with Tween-80 100 % of control

O=c1c2cc[nH]c2ncn1C1OC(CO)C(O)C1O (stereo not given)
inactive: endpoint: mean survival time, dose: 12.5 mg/kg/injection, schedule: Q01DX005 (ip), vehicle: saline 96 % of control | endpoint: mean survival time, dose: 25.0 mg/kg/injection, schedule: Q01DX005 (ip), vehicle: saline 107 % of control

O=C(CNC(=O)c1ccccc1)N/N=C/c1ccco1
inactive: [7] 94 % of control | [8] 90 % of control | [9] 95 % of control

CCOC(=O)c1c(-c2ccccc2)csc1NC(=O)CBr
inactive: endpoint: mean survival time, dose: 75.0 mg/kg/injection, schedule: Q01DX001 (ip), vehicle: saline 106 % of control | endpoint: mean survival time, dose: 150.0 mg/kg/injection, schedule: Q01DX001 (ip), vehicle: saline 101 % of control | endpoint: mean survival time, dose: 300.0 mg/kg/injection, schedule: Q01DX001 (ip), vehicle: saline 98 % of control

O=C1C(Cl)=C(SCc2ccccc2)C(=O)c2ccccc21
inactive: [2] 91 % of control | [3] 91 % of control

O=C(O)CS(=O)(=O)c1ccccc1
inactive: endpoint: mean survival time, dose: 50.0 mg/kg/injection, schedule: Q01DX009 (ip), vehicle: saline 86 % of control | endpoint: mean survival time, dose: 100.0 mg/kg/injection, schedule: Q01DX009 (ip), vehicle: saline 89 % of control

CCOC(=O)c1c(-c2ccccc2)[nH]c2ccccc2c1=O
inactive: [4] 96 % of control | [5] 98 % of control | [6] 95 % of control

CN(C)c1ccc(/C=C/C(=O)Cc2ccccc2)cc1
inactive: endpoint: mean survival time, dose: 100.0 mg/kg/injection, schedule: Q01DX001 (ip), vehicle: saline sonified 100 % of control

O=C(CSCCN1CCCCC1)N1c2ccccc2Sc2ccccc21
inactive: [1] 104 % of control | endpoint: mean survival time, dose: 25.0 mg/kg/injection, schedule: Q04DX003 (ip), vehicle: saline 101 % of control | endpoint: mean survival time, dose: 50.0 mg/kg/injection, schedule: Q04DX003 (ip), vehicle: saline 101 % of control

Nc1ccc(C(=O)O)cc1S(=O)(=O)O
inactive: endpoint: mean survival time, dose: 25.0 mg/kg/injection, schedule: Q01DX001 (ip), vehicle: Klucel (hydroxypropylcellulose) (HPC) 96 % of control | endpoint: mean survival time, dose: 50.0 mg/kg/injection, schedule: Q01DX001 (ip), vehicle: Klucel (hydroxypropylcellulose) (HPC) 100 % of control | endpoint: mean survival time, dose: 100.0 mg/kg/injection, schedule: Q01DX001 (ip), vehicle: Klucel (hydroxypropylcellulose) (HPC) 107 % of control

CC(C)(CO)COS(=O)(=O)c1ccc(Br)cc1
inactive: endpoint: mean survival time, dose: 12.5 mg/kg/injection, schedule: Q01DX009 (ip), vehicle: saline with Tween-80 95 % of control | endpoint: mean survival time, dose: 25.0 mg/kg/injection, schedule: Q01DX009 (ip), vehicle: saline with Tween-80 95 % of control | endpoint: mean survival time, dose: 50.0 mg/kg/injection, schedule: Q01DX009 (ip), vehicle: saline with Tween-80 95 % of control

N#CC(O)Cc1ccccc1 (stereo not given)
inactive: endpoint: mean survival time, dose: 5.0 mg/kg/injection, schedule: Q04DX003 (ip), vehicle: saline 98 % of control | endpoint: mean survival time, dose: 10.0 mg/kg/injection, schedule: Q04DX003 (ip), vehicle: saline 98 % of control
